# Assay results as given in patent publication US9615577B2, “Herbicidally active cyclic dione compounds, or derivatives therefor, substituted by a phenyl which has an alkynyl-containing substituent” (Syngenta Limited, priority 2012, dated 2017).
# Legend:
# Type in all cases: in vivo
# [1] = system: Abutilon theophasti Medik. (ABUTH); test: Test 1A glasshouse assay for herbicidal activity, pre-emergence; settings: 312 h, 250 g/ha, evaluated after 13 days, read-out: percentage phytotoxicity ABUTH
# Protocol: (§1) Seeds of a variety of test species were sown in standard soil in pots. After cultivation for one day (pre-emergence) or after 8 days cultivation (post-emergence) under controlled conditions in a glasshouse (at 24/16° C., day/night; 14 hours light; 65% humidity), the plants were sprayed with an aqueous spray solution derived from the formulation of the technical active ingredient in acetone/I water (50:50) solution containing 0.5% Tween 20 (polyoxyethelyene sorbitan monolaurate, CAS RN 9005-64-5). The test plants were then grown in a glasshouse under controlled conditions in a glasshouse (at 24/16° C., day/night; 14 hours light; 65% humidity) and watered twice daily. After 13 days for pre and post-emergence, the test was evaluated visually for percentage phytotoxicity to the plant (where 100=total damage to plant; 0=no damage to plant).
# (§2) Alopecurus myosuroides (ALOMY), Setaria faberi (SETFA), Echinochloa crus-galli (ECHCG), Solanum nigrum (SOLNI), Amaranthus retroflexus (AMARE), Ipomoea hederacea (IPOHE), and Abutilon theophasti Medik. (ABUTH, common English name “velvetleaf”). Of these, Alopecurus myosuroides (ALOMY), Setaria faberi (SETFA), and Echinochloa crus-galli (ECHCG) are grassy monocotyledonous weeds.
# [2] = system: Alopecurus myosuroides (ALOMY); test: as above; settings: 312 h, 250 g/ha, evaluated after 13 days, read-out: percentage phytotoxicity ALOMY
# Protocol: as §1, §2
# [3] = system: Amaranthus retroflexus (AMARE); test: as above; settings: 312 h, 250 g/ha, evaluated after 13 days, read-out: percentage phytotoxicity AMARE
# Protocol: as §1, §2
# [4] = system: Echinochloa crus-galli (ECHCG); test: as above; settings: 312 h, 250 g/ha, evaluated after 13 days, read-out: percentage phytotoxicity ECHCG
# Protocol: as §1, §2
# [5] = system: Setaria faberi (SETFA); test: as above; settings: 312 h, 250 g/ha, evaluated after 13 days, read-out: percentage phytotoxicity SETFA
# Protocol: as §1, §2
# [6] = system: Abutilon theophasti Medik. (ABUTH); test: Test 1A glasshouse assay for herbicidal activity, post-emergence; settings: 312 h, evaluated after 13 days, read-out: percentage phytotoxicity ABUTH
# Protocol: as §1, §2
# [7] = system: Alopecurus myosuroides (ALOMY); test: as above; settings: 312 h, evaluated after 13 days, read-out: percentage phytotoxicity ALOMY
# Protocol: as §1, §2
# [8] = system: Amaranthus retroflexus (AMARE); test: as above; settings: 312 h, evaluated after 13 days, read-out: percentage phytotoxicity AMARE
# Protocol: as §1, §2
# [9] = system: Echinochloa crus-galli (ECHCG); test: as above; settings: 312 h, evaluated after 13 days, read-out: percentage phytotoxicity ECHCG
# Protocol: as §1, §2
# [10] = system: Setaria faberi (SETFA); test: as above; settings: 312 h, evaluated after 13 days, read-out: percentage phytotoxicity SETFA
# Protocol: as §1, §2
# [11] = system: Alopecurus myosuroides (ALOMY); test: Biological Example 2 comparative herbicidal data, post-emergence glasshouse screen; settings: 312 h, read-out: Post-emergence herbicidal activities (percentage phytotoxicity) ALOMY; for pest or weed control at 15.625 g/ha: 15.625 g/ha application rate; for pest or weed control at 62.5 g/ha: 62.5 g/ha application rate
# Protocol: as §1
# (§3) Comparative herbicidal data is given below for certain exemplified compounds with 4-(prop-1-ynyl)-2,6-dimethylphenyl or 4-(chloroethynyl)-2,6-dimethylphenyl headgroups, compared to the corresponding compounds with either 4-ethynyl-2,6-dimethylphenyl or 2,4,6-trimethylphenyl headgroups, as follows. Comparative herbicidal data is also given below for certain exemplified compounds with 4-(prop-1-ynyl)-2-chloro-6-methoxyphenyl headgroups, compared to the corresponding compounds with 4-ethynyl-2-chloro-6-methoxyphenyl or 4-(but-1-ynyl)-2-chloro-6-methoxyphenyl or 4-methyl-2-chloro-6-methoxyphenyl or 2-chloro-6-methoxyphenyl headgroups, as follows.
# (§4) Except where specified otherwise, the glasshouse screen for herbicidal activity is substantially the same as that presented in Biological Example 1A (Test 1A) hereinabove. The weed abbreviations are as defined in Biological Example 1A.
# [12] = system: Echinochloa crus-galli (ECHCG); test: as above; settings: 312 h, read-out: Post-emergence herbicidal activities (percentage phytotoxicity) ECHCG; for pest or weed control at 15.625 g/ha: 15.625 g/ha application rate; for pest or weed control at 62.5 g/ha: 62.5 g/ha application rate
# Protocol: as §1, §3, §4
# [13] = system: Setaria faberi (SETFA); test: as above; settings: 312 h, read-out: Post-emergence herbicidal activities (percentage phytotoxicity) SETFA; for pest or weed control at 15.625 g/ha: 15.625 g/ha application rate; for pest or weed control at 62.5 g/ha: 62.5 g/ha application rate
# Protocol: as §1, §3, §4
SMILES,pest or weed control at 250 g/ha [1] [%],pest or weed control at 250 g/ha [2] [%],pest or weed control at 250 g/ha [3] [%],pest or weed control at 250 g/ha [4] [%],pest or weed control at 250 g/ha [5] [%],pest or weed control at 30 g/ha [6] [%],pest or weed control at 250 g/ha [6] [%],pest or weed control at 30 g/ha [7] [%],pest or weed control at 250 g/ha [7] [%],pest or weed control at 30 g/ha [8] [%],pest or weed control at 250 g/ha [8] [%],pest or weed control at 30 g/ha [9] [%],pest or weed control at 250 g/ha [9] [%],pest or weed control at 30 g/ha [10] [%],pest or weed control at 250 g/ha [10] [%],other results
CC#Cc1cc(C)c(C2=C(OC(=O)C(C)(C)C)C3CCC(C3)C2=O)c(C)c1 (centres unmarked) [Compound P-5],0,100,0,100,100,0,70,60,90,0,10,80,100,70,90,
"CC#Cc1cc(Cl)c(C2C(=O)C3CCC(C3)C2=O)c(OCC(F)(F)F)c1 (centres unmarked) [Compound A-19, 3-[2-chloro-4-prop-1-ynyl-6-(2,2,2-trifluoroethoxyl)phenyl]bicyclo[3.2.1]octane-2,4-dione]",0,40,0,60,60,,0,,70,,0,,100,,90,
"CC#Cc1cc(Cl)c(C2=C(OC(=O)SCC)C3CCC(C3)C2=O)c(OCC(F)(F)F)c1 (centres unmarked) [Compound P-6, [3-[2-Chloro-4-prop-1-ynyl-6-(2,2,2-trifluoroethoxyl)phenyl]-4-oxo-2-bicyclo[3.2.1]oct-2-enyl]ethylsulfanylformate]",0,10,20,,10,,0,,50,,20,,80,,50,
"C#Cc1cc(C)c(C2C(=O)C3CCC(C3)C2=O)c(C)c1 (centres unmarked) [Compound X-2, reference compound]",,,,,,,,,,,,,,,,pest or weed control at 15.625 g/ha [11]: 0%; pest or weed control at 62.5 g/ha [11]: 10%; pest or weed control at 15.625 g/ha [12]: 0%; pest or weed control at 62.5 g/ha [12]: 70%; pest or weed control at 15.625 g/ha [13]: 50%; pest or weed control at 62.5 g/ha [13]: 60%
CC#Cc1cc(C)c(C2=C(OS(C)(=O)=O)CC(CC3CCOCC3)CC2=O)c(C)c1 (centres unmarked) [Compound P-4],10,80,20,100,80,,0,,80,,0,,80,,80,
CC#Cc1cc(Cl)c(C2=C(OC(=O)c3ccc(Cl)cc3)CC(C3CCOCC3)CC2=O)c(OC)c1 (centres unmarked) [Compound P-3],80,100,100,100,100,70,80,100,90,80,80,100,100,100,100,pest or weed control at 8 g/ha ([6]; 8 g/ha): 20%; pest or weed control at 8 g/ha ([7]; 8 g/ha): 90%; pest or weed control at 8 g/ha ([8]; 8 g/ha): 20%; pest or weed control at 8 g/ha ([9]; 8 g/ha): 100%; pest or weed control at 8 g/ha ([10]; 8 g/ha): 100%
"CC#Cc1cc(Cl)c(C2C(=O)CC(CCSC)CC2=O)c(OC)c1 (centres unmarked) [Compound A-23, 2-(2-Chloro-6-methoxy-4-prop-1-ynyl-phenyl)-5-(2-methylsulfanylethyl)cyclohexane-1,3-dione]",30,90,70,100,90,30,70,60,90,10,20,100,100,100,100,
CC#Cc1ccc(C2C(=O)C3CCC(C3)C2=O)c(Cl)c1 (centres unmarked) [Compound A-11],50,100,70,100,80,,80,,100,,30,,100,,100,
"C#Cc1cc(C)c(C2C(=O)CC(CC3CCOCC3)CC2=O)c(C)c1 (centres unmarked) [Compound X-3, reference compound]",,,,,,,,,,,,,,,,pest or weed control at 15.625 g/ha [11]: 30%; pest or weed control at 62.5 g/ha [11]: 60%; pest or weed control at 15.625 g/ha [12]: 20%; pest or weed control at 62.5 g/ha [12]: 50%; pest or weed control at 15.625 g/ha [13]: 60%; pest or weed control at 62.5 g/ha [13]: 70%
CC#Cc1cc(Cl)c(C2=C(OC(=O)C(C)(C)C)C3CCC(C3)C2=O)c(OC)c1 (centres unmarked) [Compound P-7],0,100,0,100,100,10,70,90,100,0,0,100,100,90,100,
"C#Cc1ccc(C2C(=O)C(C)(C)OC(C)(C)C2=O)c(C)c1 [Compound X-1, reference compound]",,,,,,,,,,,,,,,,pest or weed control at 15.625 g/ha [11]: 20%; pest or weed control at 62.5 g/ha [11]: 10%; pest or weed control at 15.625 g/ha [12]: 0%; pest or weed control at 62.5 g/ha [12]: 0%; pest or weed control at 15.625 g/ha [13]: 0%; pest or weed control at 62.5 g/ha [13]: 30%
